Assay results from patent US8722697B2, “Pharmaceutical composition for treating hypertension and metabolic syndrome and use thereof” (Lunan Pharmaceutical Group Corporation, priority 2008, dated 2014).

Tests used:
[1] = tested on: spontaneously hypertensive rats; test: Tail arterial blood pressure of conscious spontaneously hypertensive rats; type: in vivo, rat; settings: X ± S, n = 8
Description: (§1) Forty-eight spontaneously hypertensive rats (male, body weight (300±20) g, provided by Pharmacological Center for New Medicine of Shandong New Time Pharmaceutical Co., Ltd.) were fed for one week for acclimation, and then randomly divided into six groups with eight animals in each group.
(§2) Model control group: intragastric administration of same volume of physiological saline;
(§3) P group: 1 mg/(kg·d) of pioglitazone;
(§4) A+R group: 2 mg/(kg·d) of amlodipine+1 mg/(kg·d) of rosuvastatin calcium;
(§5) P+R group: 1 mg/(kg·d) of pioglitazone+1 mg/(kg·d) of rosuvastatin calcium;
(§6) Pharmaceutical composition of the present invention: 2 mg/(kg·d) of amlodipine+1 mg/(kg·d) of pioglitazone+1 mg/(kg·d) of rosuvastatin calcium;
(§7) Each group was given intragastric administration once every day for ten weeks. During the experiment, the diet, survival status and behaviors of the animals were recorded, and the animals were weighted once every day and the doses of administration were adjusted according to the body weights. Animals were sacrificed after ten weeks, and their hearts were taken out to determine the weights of left ventricles and calculate left ventricular indexes.
Blood pressures were measured five times between two and five hours after intragastric administration in the first week, the third week and the sixth week, respectively. The average value of the blood pressures was used as the blood pressure of the sample.

[2] = tested on: spontaneously hypertensive rats; test: Urinary microalbumin (bromophenol blue absorbance) in spontaneously hypertensive rats; type: in vivo, rat; settings: intragastric once daily, high sugar and high fat diets, doses per group b107-b111; twelve-hour overnight urine; week not stated; X ± S, n = 8
Description: as §2

[3] = tested on: spontaneously hypertensive rats; test: Cardiac hypertrophy (left ventricular weight/body weight) in spontaneously hypertensive rats; type: in vivo, rat; settings: after ten weeks of intragastric administration once daily; X ± S, n = 8
Description: as §1, §2, §3, §4, §5, §6, §7
After being sacrificed with 10% potassium chloride (2 mmol/L, 1 ml/rat), the rats were weighed. […] The left ventricular was weighed after the atria were removed, and a ratio of left ventricular weight to body weight was calculated.

[4] = tested on: patients suffered from metabolic syndrome; test: Clinical treatment of patients suffered from metabolic syndrome; type: in vivo, human; settings: X ± S
Description: Eighty-eight metabolic syndrome patients were selected from those received treatment in Linyi People's Hospital from May 2007 to May 2008, and randomly divided into a control group and an experimental group.
Control group: twenty-eight males and sixteen females, whose ages were between 62 and 71 and whose body mass indexes (BMI) were between 25.5 and 30;
Experimental group: twenty-four males and twenty females, whose ages were between 60 and 70 and whose body mass indexes (BMI) were between 24.5 and 31;
Before the treatment, all patients were subjected to blood lipids (including total cholesterol (TC), high-density lipid cholesterol (HDLC)) analysis, and detection of glycated hemoglobin (HbAlC), fasting blood glucose (FBG), fasting insulin (FINS) and fibrinogen (Fg).
Patients suffered from metabolic syndrome were selected according to the diagnostic standards for type-II diabetes mellitus and hypertension made by WHO in 1999 and referring to the diagnostic standards for metabolic syndrome made by US National Cholesterol Education Program Adult Treatment Panel (NCEP-ATP III) in 2000, while cases of […], heart failure (above grade II), diseases in liver, kidney and blood system and like were excluded.
Patients in the control group were administrated with 15 mg of pioglitazone once every day, and patients in the experimental group were administrated with 5 mg of amlodipine, 7.5 mg of pioglitazone and 5 mg of rosuvastatin calcium, i.e. the proportions as described in Example 1, once every day. After eight weeks of continuous treatment, all of the above parameters were re-determined, in which blood glucose was determined with hexokinase method, blood lipid was determined with esterase method, fibrinogen was determined with coagulation method and chromogenic substrate assay, HbAlC was determined with chromatography, and fasting insulin was determined with chemiluminescence immunoassay.
Statistical analysis: SPSS software was employed, and test of significance was performed by using a paired sample t test.

[5] = tested on: spontaneously hypertensive rats; test: Carotid intima-media thickness in spontaneously hypertensive rats; type: in vivo, rat; settings: carotid artery; intragastric once daily for six months, high sugar and high fat diets; X ± S, n = 8
Description: Forty-eight spontaneously hypertensive rats (male, body weight (300±20) g, provided by the Pharmacological Center for New Medicine of Shandong New Time Pharmaceutical Co., Ltd.) were fed for one week for acclimation, and then randomly divided into six groups with eight rats in each group.
as §2
P group: intragastric administration of 2 mg/(kg·d) of pioglitazone;
LA+R group: intragastric administration of 1 mg/(kg·d) of levo-amlodipine+1 mg/(kg·d) of rosuvastatin calcium;
P+R group: intragastric administration of 2 mg/(kg·d) of pioglitazone+1 mg/(kg·d) of rosuvastatin calcium;
LA group: intragastric administration of 1 mg/(kg·d) of levo-amlodipine;
Pharmaceutical composition of the present invention: intragastric administration of 1 mg/(kg·d) of levo-amlodipine+2 mg/(kg·d) of pioglitazone+1 mg/(kg·d) of rosuvastatin calcium;
Each group was given intragastric administration once every day and fed with high sugar and high fat diets for six months. During the experiment, the diet, survival status and behaviors of the animals were recorded, and the animals were weighed once every week and the doses of administration were adjusted according to the body weights.
After the animal was anesthetized and fixed, Even's blue (60 mg/kg) dye was injected via a femoral artery. […]

calcium channel = settings: background statement; cited from earlier work
[6] = intragastric once daily, 2-5 h after administration

Compound | Blood pressure, before treatment ([1]; baseline before treatment) [mmHg] | Blood pressure after treatment, first week [1, 6] [mmHg] | Blood pressure after treatment, sixth week [1, 6] [mmHg] | Blood pressure after treatment, third week [1, 6] [mmHg] | Urinary microalbumin, Absorbance A (600 nm) [2] | Left ventricular weight [3] [g] | Left ventricular weight/body weight (×10^−3) [3] | FINS (fasting insulin), after treatment ([4]; after eight weeks, once every day, chemiluminescence immunoassay) [mlU/L] | HbAlC (glycated hemoglobin), after treatment ([4]; after eight weeks, once every day, chromatography) [%] | Fg (fibrinogen), after treatment ([4]; after eight weeks, once every day, coagulation method and chromogenic substrate assay) [mg/dL] | FBG (fasting blood glucose), after treatment ([4]; after eight weeks, once every day, hexokinase method) [mmol/L] | FINS (fasting insulin), before treatment ([4]; baseline before treatment, chemiluminescence immunoassay) [mlU/L] | HbAlC (glycated hemoglobin), before treatment ([4]; baseline before treatment, chromatography) [%] | Fg (fibrinogen), before treatment ([4]; baseline before treatment, coagulation method and chromogenic substrate assay) [mg/dL] | FBG (fasting blood glucose), before treatment ([4]; baseline before treatment, hexokinase method) [mmol/L] | Maximum intima thickness [5] [mm] | Ratio of intima to media thickness [5] | Activity relative to the dextroisomer (calcium channel) [times] | Activity relative to the racemate (calcium channel)
CCc1ccc(CCOc2ccc(CC3SC(=O)NC3=O)cc2)nc1 (stereo not shown) [P group, pioglitazone] | 151 ± 7.6 | 157 ± 8.6 | 170 ± 8.8 | 162 ± 10.3 | 0.568 ± 0.125^• | 0.99 ± 0.10 | 3.33 ± 0.19 ×10^−3 | 25.68 ± 5.34 | 6.39 ± 0.56 | 392.6 ± 64.51 | 6.63 ± 1.65 | 32.4 ± 7.21 | 6.89 ± 0.65 | 419.6 ± 89.62 | 7.12 ± 2.06 | 0.130 ± 0.026 | 2.246 ± 0.361 |  | 
levo-amlodipine [A Group] |  |  |  |  |  |  |  |  |  |  |  |  |  |  |  |  |  | 1000 | twice as high as that of the racemate
